Experimental data published in patent US8486981B2, “Selective ligands for the dopamine 3 (D3) receptor and methods of using the same” (The Regents of the University of Michigan, priority 2011, dated 2013).

Assays:
[1] = target: T1, D3 dopamine receptors (Rattus norvegicus, UniProt P19020); test: [3H]R(+)-7-OH-DPAT binding assay, rat ventral striatum membranes; details: rat brain; for Ki: mean ± SEM of 3-6 determinations; for Selectivity D1-like/D3 / Selectivity D2-like/D3: ratio of Ki values
T1 construct: Rat ventral striatum (nucleus accumbens and olfactory tubercles) was prepared in assay buffer; tissue Pel-Freez, Rogers, Ark; host or cells: rat ventral striatum (nucleus accumbens and olfactory tubercles) membranes
Protocol: All the synthesized compounds were determined for the binding affinities at the D3, D1-like and D2-like receptors in membranes prepared from the brains of adult, male Sprague-Dawley rats (Pel-Freez, Rogers, Ark.). All compounds were dissolved in 100% EtOH at a concentration of 5 mM.
[^3H]R(+)-7-OH-DPAT Binding Assays.
[^3H]R-(+)-7-OH-DPAT binding assays for the D3 dopamine receptors were performed as previously described in detail.^(44),(45) Rat ventral striatum (nucleus accumbens and olfactory tubercles) was prepared in assay buffer (50 mM Tris, 1 mM EDTA; pH 7.4 at 23° C.) to yield a final concentration of 10 mg original wet weight (o.w.w.)/ml. […] Nonspecific binding was defined by 1 μM spiperone. Assay tubes were incubated at 23° C. for 90 min. The reaction was terminated by rapid vacuum filtration.

[2] = target: T2, D2 receptor (Rattus norvegicus, UniProt P61169); test: Hypothermia assay (core body temperature) in rats; assay type: in vivo; details: 10.0 mg/kg s.c.
T2 construct: evaluated for the effect in the induction of yawning and hypothermia in rats; tissue Harlan; Indianapolis, Ind; host or cells: living male Sprague-Dawley rats
Protocol: (§1) Male Sprague-Dawley rats (Harlan; Indianapolis, Ind.) weighing 250-300 g were housed three to a cage for yawning studies, and one to a cage for hypothermia studies, and maintained on a 12-h dark/light cycle with lights on at 7:00 AM in a temperature (21-23° C.) and humidity controlled environment with free access to standard Purina rodent chow and water. […] All drugs were administered subcutaneously (s.c.) in a volume of 1 ml/kg.
Rats were anesthetized with ketamine/xylazine (100/10 mg/kg; i.p.) and their abdominal area was shaved and cleaned with alternating betadine and alcohol swabs prior to surgical implantation of radio-telemetric probes (E-4000 E-Mitter, Mini-Mitter, Bend, Oreg., USA). […]
On the day of testing, rats were weighed and returned to their home cages, which were placed onto a receiving pad (ER-4000 Receiver, Mini-mitter, Bend, Oreg.) to allow for the collection of core body temperature. Temperature measurements were taken every min with at least 30 min of baseline temperature data recorded prior to the administration of antagonist or vehicle. Agonist or vehicle injections were administered 30 min thereafter, and core body temperature was recorded for a period of at least the next 60 min. […]

[3] = Solubility in water; assay type: physicochemical
[4] = system: D3 and D2 receptors; test: Effect on pramipexole-induced yawning in rats; assay type: in vivo, rat; details: 30-min pretreatment; 38/52 […], SB-277011A 32 mg/kg, L-741,626 1.0 mg/kg
Protocol: as §1
(§2) Observation of yawning behavior began immediately after each injection, and the total number of yawns was recorded for 60 min thereafter.
(§3) Dose-response curves for the induction of yawning and hypothermia were determined with 6 rats per group, and results expressed as the mean number of yawns, or change in body temperature 60 min post agonist injection compared to the body temperature 1 min prior to the agonist injection±standard error of the mean (SEM).

[5] = target: T2, D2 receptor; test: Effect on pramipexole-induced hypothermia in rats; assay type: in vivo; details: pretreatment 10.0 mg/kg; pramipexole 1.0 mg/kg
Protocol: as §1, §2, §3

[6] = target: T3, D3 receptor (Rattus norvegicus, UniProt P19020); test: Induction of yawning behavior in rats; assay type: in vivo; details: for Emax: rat, read-out: Increase in yawning relative to maximum effect of pramipexole at 0.1 mg/kg, doses between 0.0032 and 3.2 mg/kg; for Emax / Lowest dose active (significant increase in yawning): rats; for Lowest dose active (significant increase in yawning): s.c., yawns/60 min; for In vivo functional activity at the D3 receptor: yawning assays in rats
T3 construct: evaluated for the effect in the induction of yawning and hypothermia in rats; tissue Harlan; Indianapolis, Ind; host or cells: living male Sprague-Dawley rats
Protocol: as §1
Yawning behavior was defined as a prolonged (˜1 sec.), wide opening of the mouth followed by a rapid closure. On the day of testing, rats were transferred from their home cage to a test chamber (48 cm×23 cm×20 cm clear rodent cage with standard cob bedding), and allowed to habituate to the chamber for a period of 30 min prior to a sterile water injection which was administered 30 min prior to the injection of the compound of interest. Yawns were scored for a period of 60 min thereafter. Each compound was assessed in groups of 6 rats, with each rat receiving a single dose of one compound. Food and water were unavailable during test sessions, and all experiments were conducted between the hours of 12:00 PM and 6:00 PM with at least 72 hrs between test sessions to allow for drug washout.
as §3

T2 sequence (P61169 whole entry): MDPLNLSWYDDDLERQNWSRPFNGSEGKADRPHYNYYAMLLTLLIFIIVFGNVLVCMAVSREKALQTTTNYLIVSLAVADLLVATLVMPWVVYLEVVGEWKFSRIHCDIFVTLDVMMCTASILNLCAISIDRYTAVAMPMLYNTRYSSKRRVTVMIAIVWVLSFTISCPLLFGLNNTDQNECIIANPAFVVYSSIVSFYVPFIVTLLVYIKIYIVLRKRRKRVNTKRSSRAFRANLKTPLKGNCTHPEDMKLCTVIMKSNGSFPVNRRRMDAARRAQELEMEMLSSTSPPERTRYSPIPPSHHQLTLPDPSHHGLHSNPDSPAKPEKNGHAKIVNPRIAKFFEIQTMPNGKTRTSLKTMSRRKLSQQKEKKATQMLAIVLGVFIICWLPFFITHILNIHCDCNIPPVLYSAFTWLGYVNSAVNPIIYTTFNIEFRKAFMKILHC
T3 sequence (P19020 whole entry): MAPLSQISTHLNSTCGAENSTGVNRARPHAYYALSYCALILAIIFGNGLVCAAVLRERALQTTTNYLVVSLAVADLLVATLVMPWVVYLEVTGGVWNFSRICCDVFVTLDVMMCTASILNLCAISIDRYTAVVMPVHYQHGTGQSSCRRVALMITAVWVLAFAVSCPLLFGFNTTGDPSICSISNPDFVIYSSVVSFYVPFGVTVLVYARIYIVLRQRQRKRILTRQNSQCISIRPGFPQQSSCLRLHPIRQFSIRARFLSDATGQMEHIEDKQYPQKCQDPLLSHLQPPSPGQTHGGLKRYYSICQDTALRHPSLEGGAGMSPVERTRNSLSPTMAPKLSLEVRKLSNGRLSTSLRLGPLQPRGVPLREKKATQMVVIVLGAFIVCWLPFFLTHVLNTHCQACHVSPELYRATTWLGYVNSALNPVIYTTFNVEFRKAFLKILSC
T1 sequence (P19020 whole entry): as above

SMILES | Ki [1] [nM] | Selectivity D1-like/D3 [1] | Selectivity D2-like/D3 [1] | also measured
CCCN(CCC1CCC(NC(=O)c2ccc(-c3noc(C(C)C)n3)cc2)CC1)C1CCc2nc(N)sc2C1 (single isomer, unassigned) [Compound 35] | 2 ± 0.19 | 5,366 | – | –
CCCN(CCC1CCC(NC(=O)c2ccc(-c3noc(C4CC4)n3)cc2)CC1)C1CCc2nc(N)sc2C1 (single isomer, unassigned) [Compound 36] | 3.5 ± 0.57 | 3,245 | – | –
CCCN(CCC1CCC(NC(=O)c2cccc(-c3noc(CC)n3)c2)CC1)C1CCc2nc(N)sc2C1 (single isomer, unassigned) [Compound 37] | 1.5 | 3,448 | 339 | –
CCCN(CCC1CCC(NC(=O)c2ccc(-c3noc(C)n3)cc2)CC1)C1CCc2nc(N)sc2C1 (stereo in doubt) [Compound 33, Trans-N-(4-2-(((s)-2-amino-4,5,6,7-tetrahydrobenzo[d]thiazol-6-yl)(propyl)amino)ethylcyclohexyl)-4-(5-methyl-1,2,4-oxadiazol-3-yl)benzamide] | 1.3 | 27,041 | 345 | –
CCCN(CCC1CCC(NC(=O)c2ccc(-c3noc(CC)n3)cc2)CC1)C1CCc2nc(N)sc2C1 (stereo in doubt) [Compound 34, Trans-N-(4-2-(((s)-2-amino-4,5,6,7-tetrahydrobenzo[d]thiazol-6-yl)(propyl)amino)ethylcyclohexyl)-4-(5-ethyl-1,2,4-oxadiazol-3-yl)benzamide] | 2.1 ± 0.15 | 8,381 | – | –
CCCN(CCC1CCC(NC(=O)c2cccc(-c3noc(C)n3)c2)CC1)C1CCc2nc(N)sc2C1 (stereo in doubt) [Compound 38, Trans-N-(4-2-(((s)-2-amino-4,5,6,7-tetrahydrobenzo[d]thiazol-6-yl)(propyl)amino)ethylcyclohexyl)-3-(5-methyl-1,2,4-oxadiazol-3-yl)benzamide] | 0.73 | – | 494 | Induction of hypothermia [2]: significant effect in induction of hypothermia; solubility [3]: > 100 mg/mL; Effect on yawning induced by 0.1 mg/kg pramipexole [4]: effectively inhibited; Effect on hypothermic effects of pramipexole [5]: slight, but significant reductions; Emax [6]: 25%; Lowest dose active (significant increase in yawning) [6]: 3.2 µg/kg; In vivo functional activity at the D3 receptor [6]: partial agonists at the D3 receptor
CCCN(CCC1CCC(NS(=O)(=O)c2cccc(F)c2)CC1)C1CCc2nc(N)sc2C1 (stereo in doubt) [Compound 43, Trans-N-(4-2-(((s)-2-amino-4,5,6,7-tetrahydrobenzo[d]thiazol-6-yl)(propyl)amino)ethylcyclohexyl)-3-fluorobenzenesulfonamide] | 0.72 | – | – | –
CCCN(CCC1CCC(NS(=O)(=O)c2ccc(OC)cc2)CC1)C1CCc2nc(N)sc2C1 (stereo in doubt) [Compound 44, Trans-N-(4-2-(((s)-2-amino-4,5,6,7-tetrahydrobenzo[d]thiazol-6-yl)(propyl)amino)ethylcyclohexyl)-4-methoxybenzenesulfonamide] | 0.78 | 27,487 | 49 | –
CCCN(CCC1CCC(NS(=O)(=O)c2cccc(Cl)c2)CC1)C1CCc2nc(N)sc2C1 (stereo in doubt) [Compound 45, Trans-N-(4-2-(((s)-2-amino-4,5,6,7-tetrahydrobenzo[d]thiazol-6-yl)(propyl)amino)ethylcyclohexyl)-3-chlorobenzenesulfonamide] | 1.1 ± 0.1 | – | – | –
CCCN(CCC1CCC(NS(=O)(=O)c2ccc(Cl)cc2)CC1)C1CCc2nc(N)sc2C1 (stereo in doubt) [Compound 46, Trans-N-(4-2-(((s)-2-amino-4,5,6,7-tetrahydrobenzo[d]thiazol-6-yl)(propyl)amino)ethylcyclohexyl)-4-chlorobenzenesulfonamide] | 0.95 ± 0.01 | 8,754 | 75 | –
CCCN(CCC1CCC(NS(=O)(=O)c2ccccc2Cl)CC1)C1CCc2nc(N)sc2C1 (stereo in doubt) [Compound 47, Trans-N-(4-2-(((s)-2-amino-4,5,6,7-tetrahydrobenzo[d]thiazol-6-yl)(propyl)amino)ethylcyclohexyl)-2-chlorobenzenesulfonamide] | 0.68 ± 0.06 | – | – | –
CCCN(CCC1CCC(NS(=O)(=O)c2ccc(Cl)nc2)CC1)C1CCc2nc(N)sc2C1 (stereo in doubt) [Compound 51, Trans-N-(4-2-(((s)-2-amino-4,5,6,7-tetrahydrobenzo[d]thiazol-6-yl)(propyl)amino)ethylcyclohexyl)-6-chloropyridine-3-sulfonamide] | 0.63 ± 0.04 | 12,933 | – | –
CCCN(CCC1CCC(NS(=O)(=O)c2cccnc2Cl)CC1)C1CCc2nc(N)sc2C1 (stereo in doubt) [Compound 52, Trans-N-(4-2-(((s)-2-amino-4,5,6,7-tetrahydrobenzo[d]thiazol-6-yl)(propyl)amino)ethylcyclohexyl)-2-chloropyridine-3-sulfonamide] | 0.38 | – | 451 | Induction of hypothermia [2]: significant effect in induction of hypothermia; Effect on yawning induced by 0.1 mg/kg pramipexole [4]: effectively inhibited; Effect on hypothermic effects of pramipexole [5]: slight, but significant reductions; Emax [6]: 25%; Lowest dose active (significant increase in yawning) [6]: 3.2 µg/kg; In vivo functional activity at the D3 receptor [6]: partial agonists at the D3 receptor
CCCN(CCC1CCC(NS(=O)(=O)c2cnccc2Cl)CC1)C1CCc2nc(N)sc2C1 (stereo in doubt) [Compound 53, Trans-N-(4-2-(((s)-2-amino-4,5,6,7-tetrahydrobenzo[d]thiazol-6-yl)(propyl)amino)ethylcyclohexyl)-4-chloropyridine-3-sulfonamide] | 0.93 | – | – | –
OC1(c2ccc(Cl)cc2)CCN(Cc2c[nH]c3ccccc23)CC1 [L-741,626, reference compound] | – | – | – | Effect on yawning at […] pramipexole [4]: reversed the inhibition of yawning; Effect on yawning induced by 0.1 mg/kg pramipexole [4]: failed to alter the induction of yawning
N#Cc1ccc2c(c1)CCN(CCC1CCC(NC(=O)c3ccnc4ccccc34)CC1)C2 (stereo not drawn) [SB-277011A, reference compound] | – | – | – | Effect on yawning at […] pramipexole [4]: inhibited the induction of yawning; Effect on yawning induced by 0.1 mg/kg pramipexole [4]: inhibited the induction of yawning
